Source: EP2975033A1, “Improved cysteine-protease inhibitors” (Universitat Jaume I, priority 2014, dated 2016)
≈ marks a conversion by molar mass, not a printed value. Where “and” joins values, the source holds several entries; their conditions need not be identical. Equal entries are not always repeated. Where two headings read alike, the source gives them in different places. Each block holds one molecule with its values, some of them ahead of it.

Experiments:
[1] = system: T. cruzi Tulahuen strain C2C4; experiment: Activity against T. cruzi in L-6 cells (beta-galactosidase, CPRG); assay type: cell-based; settings: Trypanosoma cruzi, TULAHUEN, L6
Description: (§1) For all the susceptibility assays with parasites and cells, each drug was tested in duplicate and each assay was repeated at least once. • a. Activity against Trypanosoma brucei rhodesiense STIB900. This stock was isolated in 1982 from a human patient in Tanzania and after several mouse passages cloned and adapted to axenic culture conditions (Baltz et al 1985) Minimum Essential Medium (50 µl) supplemented with 25 mM HEPES, 1g/l additional glucose, 1% MEM non-essential amino acids (100x), 0.2 mM 2-mercaptoethanol, 1 mM Na-pyruvate and 15% heat inactivated horse serum was added to each well of a 96-well microtiter plate. Serial drug dilutions of eleven 3-fold dilution steps covering a range from 100 to 0.002 µg/ml were prepared. Then 4x10^3 bloodstream forms of T. b. rhodesiense STIB 900 in 50 µl was added to each well and the plate incubated at 37 °C under a 5 % CO2 atmosphere for 70 h. 10 µl Alamar Blue (resazurin, 12.5 mg in 100 ml double-distilled water) was then added to each well and incubation continued for a further 2-4 h (Raz et al 1997). Then the plates were read with a Spectramax Gemini XS microplate fluorometer (Molecular Devices Cooperation, Sunnyvale, CA, USA) using an excitation wave length of 536 nm and an emission wave length of 588 nm. The IC50 values were calculated by linear regression (Huber 1993) from the sigmoidal dose inhibition curves using SoftmaxPro software (Molecular Devices Cooperation, Sunnyvale, CA, USA). Melarsoprol (Arsobal Sanofi-Aventis, received from WHO) is used as control. • b. Activity against T. cruzi. Rat skeletal myoblasts (L-6 cells) were seeded in 96-well microtitre plates at 2000 cells/well in 100 µL RPMI 1640 medium with 10% FBS and 2 mM I-glutamine. After 24 h the medium was removed and replaced by 100 µl per well containing 5000 trypomastigote forms of T. cruzi Tulahuen strain C2C4 containing the β-galactosidase (Lac Z) gene (Buckner et al. 1996). After 48 h the medium was removed from the wells and replaced by 100 µl fresh medium with or without a serial drug dilution of eleven 3-fold dilution steps covering a range from 100 to 0.002 µg/ml. After 96 h of incubation the plates were inspected under an inverted microscope to assure growth of the controls and sterility. Then the substrate CPRG/Nonidet (50 µl) was added to all wells. A color reaction developed within 2-6 h and could be read photometrically at 540 nm. Data were analyzed with the graphic programme Softmax Pro (Molecular Devices), which calculated IC50 values by linear regression (Huber 1993) from the sigmoidal dose inhibition curves. […] Activity against L. donovani axenic amastigotes. Amastigotes of L. donovani strain MHOM/ET/67/L82 were grown in axenic culture at 37 °C in SM medium (Cunnigham et al. 1977) at pH 5.4 supplemented with 10% heat-inactivated fetal bovine serum under an atmosphere of 5% CO2 in air. One hundred microlitres of culture medium with 10^5 amastigotes from axenic culture with or without a serial drug dilution were seeded in 96-well microtitre plates. Serial drug dilutions of eleven 3-fold dilution steps covering a range from 90 to 0.002 µg/ml were prepared. After 70 h of incubation the plates were inspected under an inverted microscope to assure growth of the controls and sterile conditions. 10 µl of Alamar Blue (12.5 mg resazurin dissolved in 100 ml distilled water) (Mikus and Steverdig. 2000) were then added to each well and the plates incubated for another 2 h. Then the plates were read with a Spectramax Gemini XS microplate fluorometer (Molecular Devices Cooperation, Sunnyvale, CA, USA) using an excitation wave length of 536 nm and an emission wave length of 588 nm. Data were analyzed using the software Softmax Pro (Molecular Devices Cooperation, Sunnyvale, CA, USA). Decrease of fluorescence (= inhibition) was expressed as percentage of the fluorescence of control cultures and plotted against the drug concentrations. From the sigmoidal inhibition curves the IC50 values were calculated. • d.

[2] = system: Trypanosoma brucei rhodesiense STIB900; experiment: Activity against Trypanosoma brucei rhodesiense STIB900 (Alamar Blue); assay type: cell-based; settings: Trypanosoma brucei
Description: as §1

[3] = system: P. falciparum NF54 strain; experiment: Activity against P. falciparum, 3H-hypoxanthine incorporation assay; assay type: cell-based; settings: Plasmodium falciparum, NF54
[4] = system: L. donovani strain MHOM/ET/67/L82; experiment: Activity against L. donovani axenic amastigotes (Alamar Blue); assay type: cell-based; settings: for IC50: Leishmania donovani
Description: as §1

[5] = target: T1, Cathepsin L (human) (Homo sapiens, UniProt P07711); experiment: Protease assay, fluorogenic substrate Z-Phe-Arg-AMC: Cathepsin L; assay type: biochemical
T1 construct: Cathepsin L (human liver) Calbiochem; purchased Calbiochem; host or cells: human liver (tissue-derived)
Source text: (§2) 2.1.1. Protease Assays as shown in tables 1 and 2: Cathepsin L (human), Cathepsin B (human), Rhodesain (Trypanosoma brucei rhodesiense), Falcipain 2 (Plasmodium falciparum)
(§3) Enzyme assays used to identify inhibitors of the target cysteine proteases. The effect is detected measuring fluorescence increase due to hydrolysis of fluorogenic substrates by the target enzymes in absence and presence of potential inhibitors.
(§4) • a. Proteins (enzymes): • Cathepsin L (human liver) Calbiochem • Cathepsin B (human liver) Calbiochem • Rhodesain: recombinantly expressed according to ref.: Caffrey, C. R.; Hansell, E.; Lucas, K. D.; Brinen, L. S.; Hernandez, A. A.; Cheng, J.; Gwaltney, S. L., II; Roush, W. R.; Stierhof, Y. D.; Bogyo, M.; Steverding, D.; McKerrow, J. H. Active site mapping, biochemical properties and subcellular localization of rhodesain, the major cysteine protease of Trypanosoma • Falcipain 2: recombinantly expressed according to ref.: Pandey, K. C.; Wang, S. X.; Sijwali, P. S.; Lau, A. L.; McKerrow, J. H.; Rosenthal, P. J. The Plasmodium falciparum cysteine protease falcipain-2 captures its substrate, hemoglobin, via a unique motif. Proc. Natl. Acad. Sci. U.S.A. 2005, 102, 9138-9143. • b. Buffers: • Cathepsin B: 50 mM Tris-Puffer pH 6.5 mit 2 mM DTT, 5 mM EDTA, 200 mM NaCl, 0.005% Brij35 • Cathepsin L: 50 mM Tris-Puffer pH 6.5 mit 2 mM DTT, 5 mM EDTA, 200 mM NaCl, 0.005% Brij35 • Rhodesain: 50 mM Acetat-Puffer pH 5.5 mit 5 mM DTT, 5 mM EDTA, 200 mM NaCl, 0.005% Brij35 • Falcipain 2: 50 mM Acetat-Puffer pH 5.5 mit 5 mM DTT, 5 mM EDTA, 200 mM NaCl, 0.005% Brij35 • c. Substrates: • Cathepsin L: 6,25 µM Z-Phe-Arg-7-amino-4-methylcumarin, HCl von Bachem, Ex 380 nm, Em 460 nm • Cathepsin B: 100 µM Z-Phe-Arg-7-amino-4-methylcumarin, HCl von Bachem, Ex 380 nm, Em 460 nm • Rhodesain: 10µM Z-Phe-Arg-7-amino-4-methylcumarin, HCl von Bachem, Ex 380 nm, Em 460 nm • Falcipain 2: 25µM Z-Phe-Arg-7-amino-4-methylcumarin, HCl von Bachem, Ex 380 nm, Em 460 nm • Reference substance(s)/positive control(s): E64 • d. Solvent for inhibitors and substrates: DMSO 99,5% (GC) DC4540, Sigma • e. Measurement device: Tecan Fluorescence spectrophotometer infinite F200 Pro • f. Well plates: 96 well plates, Lia-Plate White, Greiner bio-one, flat bottom, high binding • g. Methodology: Substrates and inhibitor stock solutions are prepared in DMSO and diluted with the respective assay buffer (final DMSO concentration: […]). Enzyme stock solutions are diluted with assay buffer to yield a fluorescence increase of dF/min ≈ _20. Total volume: 200 µL (180 µL of assay buffer, 5 µL of enzyme solution, 10 µL of DMSO or inhibitor solution, 5 µL of substrate solution). Assays are started by the addition of substrate solution. Fluorescence increase is detected over a period of 10 - 30 min, depending on time dependent (30 min) or non-time dependent (10 min) inhibition. • h. Temp: 25 °C • i. DATA-[…] • Software: Grafit 5.013 • Ki values are calculated from IC50 values (obtained by the 4-parameter IC50 equation) using the Chen-Prusoff equation: Ki=IC50/(1 + [S]/Km)
(§5) In vitro inhibition of cysteine-proteases cruzain (CR) (Trypanosoma cruzi (T. cruzi)), rhodesain (RD) (T. brucei), cathepsin B (CB), falcipain (FP2) (Plasmodium falciparum) and cathepsin L (CL) was assessed by quantification of the resulting fluorescence emission of the proteolytic breakdown of synthetic compound Z-Phe-Arg-AMC (Bachem). The results of this determination are shown in tables 1 and 2 illustrated above.

[6] = target: T2, Rhodesain (Trypanosoma brucei rhodesiense, UniProt Q95PM0); experiment: Protease assay, fluorogenic substrate Z-Phe-Arg-AMC: Rhodesain; assay type: biochemical; settings: for IC50: RD=Rhodesain, 25 °C, pH 5.5, 10µM substrate
T2 construct: made in house
Source text: as §2, §3, §4, §5

[7] = target: T3, Falcipain 2 (Plasmodium falciparum, UniProt Q8I6U4); experiment: Protease assay, fluorogenic substrate Z-Phe-Arg-AMC: Falcipain 2; assay type: biochemical; settings: FP2=Falcipain2
T3 construct: made in house
Source text: as §2, §3, §4, §5

[8] = target: T4, Cathepsin B (human) (Homo sapiens, UniProt P07858); experiment: Protease assay, fluorogenic substrate Z-Phe-Arg-AMC: Cathepsin B; assay type: biochemical; settings: CB=CathepsinB; for IC50: 25 °C, pH 6.5, 100 µM substrate, read-out: CBIC50micM
T4 construct: Cathepsin B (human liver) Calbiochem; purchased Calbiochem; host or cells: human liver (tissue-derived)
Source text: as §2, §3, §4, §5

[9] = target: cruzain (CR) (Trypanosoma cruzi, UniProt P25779); experiment: In vitro inhibition of cruzain, fluorescence of Z-Phe-Arg-AMC breakdown; assay type: biochemical
Description: as §3, §5

T2 sequence (Q95PM0 entry or part of it): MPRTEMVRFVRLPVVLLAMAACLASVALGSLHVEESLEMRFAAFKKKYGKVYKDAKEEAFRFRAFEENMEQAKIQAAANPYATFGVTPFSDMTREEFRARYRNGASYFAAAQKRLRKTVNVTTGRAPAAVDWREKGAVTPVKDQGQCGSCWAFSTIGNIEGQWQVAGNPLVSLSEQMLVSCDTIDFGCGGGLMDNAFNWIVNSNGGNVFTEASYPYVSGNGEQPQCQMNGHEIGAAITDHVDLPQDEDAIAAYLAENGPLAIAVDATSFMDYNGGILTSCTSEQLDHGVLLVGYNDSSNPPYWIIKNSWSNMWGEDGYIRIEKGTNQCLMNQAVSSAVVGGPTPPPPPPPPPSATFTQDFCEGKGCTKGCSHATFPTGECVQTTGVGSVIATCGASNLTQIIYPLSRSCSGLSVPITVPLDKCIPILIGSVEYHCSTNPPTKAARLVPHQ
T1 sequence (P07711 114-333): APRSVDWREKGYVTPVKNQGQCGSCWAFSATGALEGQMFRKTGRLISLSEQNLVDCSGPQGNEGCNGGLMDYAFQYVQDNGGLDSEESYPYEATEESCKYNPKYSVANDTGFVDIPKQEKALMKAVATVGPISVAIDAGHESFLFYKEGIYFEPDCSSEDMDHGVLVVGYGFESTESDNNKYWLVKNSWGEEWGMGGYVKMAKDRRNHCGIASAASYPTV
cruzain (CR), sequence (P25779 123-467): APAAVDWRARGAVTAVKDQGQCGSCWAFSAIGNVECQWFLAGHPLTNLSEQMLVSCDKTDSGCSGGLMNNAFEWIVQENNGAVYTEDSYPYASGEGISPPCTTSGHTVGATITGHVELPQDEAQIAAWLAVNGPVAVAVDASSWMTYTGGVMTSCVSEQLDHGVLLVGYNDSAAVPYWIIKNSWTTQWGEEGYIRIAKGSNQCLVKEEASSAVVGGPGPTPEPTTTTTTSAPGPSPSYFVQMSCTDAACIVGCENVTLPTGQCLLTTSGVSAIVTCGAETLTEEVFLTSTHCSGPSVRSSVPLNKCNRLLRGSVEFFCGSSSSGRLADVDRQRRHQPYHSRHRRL
T3 sequence (Q8I6U4 244-484): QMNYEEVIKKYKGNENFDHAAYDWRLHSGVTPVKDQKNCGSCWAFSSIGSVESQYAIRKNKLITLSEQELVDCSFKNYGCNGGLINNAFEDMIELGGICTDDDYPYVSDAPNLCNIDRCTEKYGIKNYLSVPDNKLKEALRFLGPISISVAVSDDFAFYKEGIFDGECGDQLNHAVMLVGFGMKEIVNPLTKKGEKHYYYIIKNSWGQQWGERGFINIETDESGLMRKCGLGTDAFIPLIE

SMILES: CCOC(=O)/C=C/C(=O)[C@H](CCc1ccccc1)NC(=O)[C@H](CC(C)C)NC(=O)OCc1ccccc1 [FGA-47]
IC50 ([1]; mean of replicates, read-out: T.cruzi. IC50 mean): 3.63 µg/mL (≈ 7.14 µM) | IC50 ([1]; replicate 1, L-6 cells, 96 h, read-out: T.cruzi. IC50 repl1): 5.17 µg/mL (≈ 10.2 µM) | IC50 ([1]; replicate 2, L-6 cells, 96 h, read-out: T.cruzi. IC50 repl2): 2.09 µg/mL (≈ 4.11 µM) | IC50 ([2]; 70 h, replicate 1, bloodstream forms, 70 h, read-out: T.b.rhod. IC50 repl1): 1.68 µg/mL (≈ 3.3 µM) | IC50 ([2]; 70 h, replicate 2, bloodstream forms, 70 h, read-out: T.b.rhod. IC50 repl2): 0.675 µg/mL (≈ 1.33 µM) | IC50 ([2]; mean of replicates, read-out: T.b.rhod. IC50 mean): 1.18 µg/mL (≈ 2.32 µM) | IC50 ([3]; mean of replicates, read-out: P.falc NF54 IC50 mean): 0.821 µg/mL (≈ 1.61 µM) | IC50 ([3]; replicate 1, erythrocytic stages, read-out: P.falc NF54 IC50 repl1): 0.921 µg/mL (≈ 1.81 µM) | IC50 ([3]; replicate 2, erythrocytic stages, read-out: P.falc NF54 IC50 repl2): 0.72 µg/mL (≈ 1.42 µM) | IC50 ([4]; mean of replicates, read-out: L.don. ax am IC50 mean): 0.048 µg/mL (≈ 0.0944 µM) | IC50 ([4]; replicate 1, axenic amastigotes, pH 5.4, 70 h, read-out: L.don. ax am IC50 repl1): 0.044 µg/mL (≈ 0.0865 µM) | IC50 ([4]; replicate 2, axenic amastigotes, pH 5.4, 70 h, read-out: L.don. ax am IC50 repl2): 0.052 µg/mL (≈ 0.102 µM)

IC50 ([4]; 70 h, pH 5.4, replicate 2, axenic amastigotes, pH 5.4, 70 h, read-out: L.don. ax am IC50 repl2): 0.071 µg/mL (≈ 0.174 µM)
SMILES: CCCCCCCCCCCCCCCCOP(=O)([O-])OCC[N+](C)(C)C [Miltefosine, reference compound]
L.don. ax am IC50 mean ([4]; mean of replicates): 0,059 micrograms/mL and 1,44 micrograms/mL | L.don. ax am IC50 repl1 ([4]; replicate 1, axenic amastigotes, pH 5.4, 70 h): 0,046 micrograms/mL and 1,44 micrograms/mL

SMILES: CCOC(=O)/C=C/C(=O)[C@H](CCc1ccccc1)NC(=O)[C@H](Cc1ccccc1)NC(=O)OCc1ccccc1 [drawing 38]
CL(K2nd(M-1s-1)) ([5]; CL=CathepsinL): 45364 M⁻¹ s⁻¹ | IC50 ([5]; CL=CathepsinL; 25 °C, pH 6.5, 6,25 µM substrate; read-out: CL(IC50)): 50 nM | RD(K2nd(M-1s-1)) [6]: 1274510 M⁻¹ s⁻¹ | IC50 [6]: 30.7 nM | FP2(K2nd(M-1s-1)) [7]: 17099 M⁻¹ s⁻¹ | CB(K2nd(M-1s-1)) [8]: 45486 M⁻¹ s⁻¹ | IC50 [8]: 70 nM

SMILES: CCOC(=O)/C=C/C(=O)[C@H](CCc1ccccc1)NC(=O)[C@H](CC(C)C)NC(=O)OCc1ccccc1 [drawing 39]
CL(K2nd(M-1s-1)) ([5]; CL=CathepsinL): 29885 M⁻¹ s⁻¹ | IC50 ([5]; read-out: CL(IC50); CL=CathepsinL; 25 °C, pH 6.5, 6,25 µM substrate): 257 nM | RD(K2nd(M-1s-1)) [6]: 116147 M⁻¹ s⁻¹ | IC50 [6]: 145 nM | FP2(K2nd(M-1s-1)) [7]: 6035 M⁻¹ s⁻¹ | CB(K2nd(M-1s-1)) [8]: 42393 M⁻¹ s⁻¹ | IC50 [8]: 50 nM | CR(K2nd(M-1s-1)) [9]: 60784 M⁻¹ s⁻¹ | IC50 [9]: 77 nM
